Laboratory results published in article PMC4917448 (Journal of biomolecular screening, 2016).
“Also recorded” adds a separate entry of the source.

Assays:
[1] = tested on: HDAC I/II; assay: HDAC-Glo I/II assay in human neural stem cells; format: cell-based; settings: for HDAC-Glo: Efficacy, hNSC: maximal response
[2] = tested on: HDAC I/II; assay: HDAC-Glo I/II assay in HCT116 cells; format: cell-based, human; settings: for HDAC-Glo: Efficacy, HCT116 / Efficacy, HDAC-Glo I/II HCT116 assay: maximal response
[3] = biological target: HDAC3 (Homo sapiens, UniProt O15379); assay: Fluorogenic isoform-specific HDAC assay, HDAC3; format: biochemical
Sequence of HDAC3 (O15379 whole entry, canonical isoform): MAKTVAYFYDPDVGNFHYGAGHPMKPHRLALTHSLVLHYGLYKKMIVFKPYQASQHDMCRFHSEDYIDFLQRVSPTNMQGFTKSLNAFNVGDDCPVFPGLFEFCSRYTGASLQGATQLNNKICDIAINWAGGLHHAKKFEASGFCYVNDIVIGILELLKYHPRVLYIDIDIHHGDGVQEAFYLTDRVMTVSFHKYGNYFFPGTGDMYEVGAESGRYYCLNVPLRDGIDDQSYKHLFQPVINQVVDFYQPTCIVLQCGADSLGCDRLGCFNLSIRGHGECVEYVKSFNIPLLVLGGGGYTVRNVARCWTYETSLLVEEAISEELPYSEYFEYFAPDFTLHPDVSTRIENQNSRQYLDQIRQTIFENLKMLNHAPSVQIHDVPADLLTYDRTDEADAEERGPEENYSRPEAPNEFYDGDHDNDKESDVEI
Sequence of HDAC3 (Q9Y618 395-489 partner limits assumed): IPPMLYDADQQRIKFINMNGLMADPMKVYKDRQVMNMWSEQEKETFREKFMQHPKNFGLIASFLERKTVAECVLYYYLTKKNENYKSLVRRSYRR

[4] = tested on: HCT116 cells; assay: CellTiter-Glo cell viability assay in HCT116; format: cell-based, human; settings: for IC50: Homo sapiens, HCT-116, 1 h, read-out: Viability: IC50, HCT116; for Viability: IC50, HCT116: cherry-pick confirmation, 1 hour
[5] = CellTiter-Glo cell viability assay in HCT116; format: cell-based, human; settings: human, HCT116 cells
[6] = CellTiter-Glo cell viability assay in hNSC; format: cell-based, human; settings: human, human neural stem cells (hNSC)
[7] = tested on: human neural stem cells; assay: CellTiter-Glo cell viability assay in hNSC; format: cell-based; settings: for IC50: Homo sapiens, Neural stem cell, 1 h, read-out: Viability: IC50, hNSC
[8] = tested on: HDAC I/II; assay: HDAC-Glo I/II assay in HepG2 cells; format: cell-based, human; settings: read-out: average IC50, HDAC-Glo I/II activity; HepG2, assay optimization, Figure 1A
[9] = tested on: HDAC I/II; assay: HDAC-Glo I/II assay in HEK293 cells; format: cell-based, human; settings: read-out: average IC50, HDAC-Glo I/II activity; HEK293, assay optimization, Figure 1A
[10] = tested on: class I and II HDAC enzymes; assay: Panel of fluorogenic assays against ten class I and II HDAC isoforms; format: biochemical, human; settings: 20 μM
[11] = tested on: HDAC I/II; assay: HDAC-Glo I/II assay in SU-DHL-6 cells; format: cell-based, human; settings: read-out: average IC50, HDAC-Glo I/II activity; SU-DHL-6, assay optimization, Figure 1A
[12] = biological target: T1, HDAC7 (Homo sapiens, UniProt Q8WUI4); assay: Fluorogenic isoform-specific HDAC assay, HDAC7; format: biochemical; settings: Figure 4D, Suppl. Table S4
T1 sequence (Q8WUI4 1-952): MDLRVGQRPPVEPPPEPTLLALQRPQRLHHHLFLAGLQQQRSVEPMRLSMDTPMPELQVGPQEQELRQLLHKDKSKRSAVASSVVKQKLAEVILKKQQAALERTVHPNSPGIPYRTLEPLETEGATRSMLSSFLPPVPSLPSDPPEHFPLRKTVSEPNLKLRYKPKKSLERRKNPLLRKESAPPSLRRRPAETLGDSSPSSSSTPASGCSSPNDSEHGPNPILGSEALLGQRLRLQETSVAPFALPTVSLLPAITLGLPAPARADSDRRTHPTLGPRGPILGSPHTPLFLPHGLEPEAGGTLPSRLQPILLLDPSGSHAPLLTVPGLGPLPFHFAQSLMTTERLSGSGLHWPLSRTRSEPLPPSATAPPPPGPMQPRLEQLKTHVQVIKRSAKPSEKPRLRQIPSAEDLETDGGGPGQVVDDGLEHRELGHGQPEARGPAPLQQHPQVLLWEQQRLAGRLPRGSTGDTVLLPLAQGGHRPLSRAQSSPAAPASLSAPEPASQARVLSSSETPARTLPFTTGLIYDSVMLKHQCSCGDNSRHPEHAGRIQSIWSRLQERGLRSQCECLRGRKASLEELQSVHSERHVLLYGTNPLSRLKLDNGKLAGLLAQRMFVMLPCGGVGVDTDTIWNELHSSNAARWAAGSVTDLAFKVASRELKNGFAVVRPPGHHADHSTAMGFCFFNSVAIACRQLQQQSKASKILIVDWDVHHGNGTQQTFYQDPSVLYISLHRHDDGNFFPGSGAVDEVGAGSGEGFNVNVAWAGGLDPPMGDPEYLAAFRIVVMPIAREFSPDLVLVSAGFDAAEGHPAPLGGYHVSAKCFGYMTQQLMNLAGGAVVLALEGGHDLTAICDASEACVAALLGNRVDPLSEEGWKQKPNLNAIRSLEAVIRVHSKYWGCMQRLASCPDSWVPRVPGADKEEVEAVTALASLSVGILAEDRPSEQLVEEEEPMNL

[13] = biological target: T2, HDAC6 (Homo sapiens, UniProt Q9UBN7); assay: Fluorogenic isoform-specific HDAC assay, HDAC6; format: biochemical
T2 sequence (Q9UBN7 1-1215): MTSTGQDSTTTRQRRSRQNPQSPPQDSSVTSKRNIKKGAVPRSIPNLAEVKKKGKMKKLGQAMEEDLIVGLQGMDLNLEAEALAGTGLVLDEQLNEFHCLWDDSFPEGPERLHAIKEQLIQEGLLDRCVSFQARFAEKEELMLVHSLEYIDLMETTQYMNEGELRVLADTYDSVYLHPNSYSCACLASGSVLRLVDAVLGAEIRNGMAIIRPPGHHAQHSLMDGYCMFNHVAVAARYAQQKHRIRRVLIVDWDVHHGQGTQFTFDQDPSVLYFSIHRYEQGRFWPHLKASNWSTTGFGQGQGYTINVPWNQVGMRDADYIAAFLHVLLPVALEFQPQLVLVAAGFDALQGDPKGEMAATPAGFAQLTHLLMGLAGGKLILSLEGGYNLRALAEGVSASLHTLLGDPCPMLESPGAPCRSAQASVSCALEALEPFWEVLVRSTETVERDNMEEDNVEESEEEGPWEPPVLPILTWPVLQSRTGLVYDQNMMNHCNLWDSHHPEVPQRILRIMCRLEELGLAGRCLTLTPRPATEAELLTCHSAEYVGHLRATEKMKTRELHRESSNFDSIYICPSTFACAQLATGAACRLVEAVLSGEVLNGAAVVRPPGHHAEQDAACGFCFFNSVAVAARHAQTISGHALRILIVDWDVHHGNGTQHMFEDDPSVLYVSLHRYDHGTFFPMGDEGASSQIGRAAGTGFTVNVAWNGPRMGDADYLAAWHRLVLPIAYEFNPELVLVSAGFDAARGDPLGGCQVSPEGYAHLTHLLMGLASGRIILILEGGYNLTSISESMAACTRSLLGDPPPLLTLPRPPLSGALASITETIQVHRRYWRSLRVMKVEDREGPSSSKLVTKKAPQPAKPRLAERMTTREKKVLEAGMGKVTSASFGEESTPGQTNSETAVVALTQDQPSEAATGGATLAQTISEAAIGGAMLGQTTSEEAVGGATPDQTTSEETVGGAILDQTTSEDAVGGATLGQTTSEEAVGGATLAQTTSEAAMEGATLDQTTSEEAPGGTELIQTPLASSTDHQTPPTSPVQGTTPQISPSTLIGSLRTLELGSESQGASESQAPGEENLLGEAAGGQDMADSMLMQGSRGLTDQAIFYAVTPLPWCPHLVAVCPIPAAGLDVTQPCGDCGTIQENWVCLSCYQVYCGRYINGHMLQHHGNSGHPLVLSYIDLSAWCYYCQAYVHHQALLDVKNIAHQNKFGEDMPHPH

[14] = biological target: HDAC9 (Homo sapiens, UniProt Q9UKV0); assay: Fluorogenic isoform-specific HDAC assay, HDAC9; format: biochemical
Sequence of HDAC9 (Q9UKV0 whole entry, canonical isoform): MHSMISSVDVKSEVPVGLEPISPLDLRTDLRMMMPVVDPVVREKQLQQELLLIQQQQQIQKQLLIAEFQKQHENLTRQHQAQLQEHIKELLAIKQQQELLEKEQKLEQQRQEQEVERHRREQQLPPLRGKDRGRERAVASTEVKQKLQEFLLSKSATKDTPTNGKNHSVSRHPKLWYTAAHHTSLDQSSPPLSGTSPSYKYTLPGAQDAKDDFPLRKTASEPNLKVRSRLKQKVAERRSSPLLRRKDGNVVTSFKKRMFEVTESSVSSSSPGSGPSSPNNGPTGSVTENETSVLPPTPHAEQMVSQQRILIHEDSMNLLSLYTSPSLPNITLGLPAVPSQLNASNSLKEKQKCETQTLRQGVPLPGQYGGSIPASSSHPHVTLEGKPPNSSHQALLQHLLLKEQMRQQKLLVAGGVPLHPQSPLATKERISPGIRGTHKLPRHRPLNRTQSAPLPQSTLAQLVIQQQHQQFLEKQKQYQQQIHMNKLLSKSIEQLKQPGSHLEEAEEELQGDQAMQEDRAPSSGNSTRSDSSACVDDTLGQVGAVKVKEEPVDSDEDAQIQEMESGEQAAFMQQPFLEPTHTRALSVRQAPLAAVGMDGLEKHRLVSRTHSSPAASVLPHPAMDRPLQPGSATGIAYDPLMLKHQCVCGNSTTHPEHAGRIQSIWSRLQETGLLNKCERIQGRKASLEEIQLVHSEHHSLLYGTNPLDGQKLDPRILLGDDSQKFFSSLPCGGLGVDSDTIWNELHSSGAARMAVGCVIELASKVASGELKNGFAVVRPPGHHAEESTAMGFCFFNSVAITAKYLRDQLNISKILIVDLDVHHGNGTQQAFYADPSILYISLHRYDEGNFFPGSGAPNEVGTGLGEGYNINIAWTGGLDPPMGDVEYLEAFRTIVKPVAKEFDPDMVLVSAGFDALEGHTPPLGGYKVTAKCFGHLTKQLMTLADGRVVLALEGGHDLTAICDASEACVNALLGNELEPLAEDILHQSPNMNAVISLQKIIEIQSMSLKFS

[15] = biological target: T3, HDAC8 (Homo sapiens, UniProt Q9BY41); assay: Fluorogenic isoform-specific HDAC assay, HDAC8; format: biochemical
T3 sequence (Q9BY41 1-377): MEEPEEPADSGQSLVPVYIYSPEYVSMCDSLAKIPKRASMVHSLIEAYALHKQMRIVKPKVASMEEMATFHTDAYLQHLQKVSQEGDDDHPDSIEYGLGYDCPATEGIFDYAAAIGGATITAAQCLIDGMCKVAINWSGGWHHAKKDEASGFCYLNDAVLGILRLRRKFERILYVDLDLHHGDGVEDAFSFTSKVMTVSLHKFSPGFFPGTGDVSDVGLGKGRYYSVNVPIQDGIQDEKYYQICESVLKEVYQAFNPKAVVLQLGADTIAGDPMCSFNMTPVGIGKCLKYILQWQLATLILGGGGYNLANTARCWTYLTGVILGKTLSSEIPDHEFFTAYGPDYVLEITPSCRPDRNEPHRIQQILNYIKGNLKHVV

[16] = biological target: HDAC1 (Homo sapiens, UniProt Q13547); assay: Fluorogenic isoform-specific HDAC assay, HDAC1; format: biochemical; settings: Figure 4C, Suppl. Table S4
Sequence of HDAC1 (Q13547 whole entry, canonical isoform): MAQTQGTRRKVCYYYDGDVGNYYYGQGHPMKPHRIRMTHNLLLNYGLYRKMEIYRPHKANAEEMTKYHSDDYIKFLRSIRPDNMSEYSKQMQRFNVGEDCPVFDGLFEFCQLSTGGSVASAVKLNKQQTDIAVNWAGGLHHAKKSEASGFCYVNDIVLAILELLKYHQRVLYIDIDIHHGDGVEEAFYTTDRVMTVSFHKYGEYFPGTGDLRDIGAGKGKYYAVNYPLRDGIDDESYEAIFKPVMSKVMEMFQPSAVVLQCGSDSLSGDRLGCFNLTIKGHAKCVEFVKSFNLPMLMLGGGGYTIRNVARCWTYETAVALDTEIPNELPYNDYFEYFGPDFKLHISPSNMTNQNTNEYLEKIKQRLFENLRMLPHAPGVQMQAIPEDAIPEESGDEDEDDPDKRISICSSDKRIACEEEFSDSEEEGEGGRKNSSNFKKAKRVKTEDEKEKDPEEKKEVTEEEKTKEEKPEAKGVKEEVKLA

[17] = biological target: HDAC2 (Homo sapiens, UniProt Q92769); assay: Fluorogenic isoform-specific HDAC assay, HDAC2; format: biochemical
Sequence of HDAC2 (Q92769 whole entry, canonical isoform): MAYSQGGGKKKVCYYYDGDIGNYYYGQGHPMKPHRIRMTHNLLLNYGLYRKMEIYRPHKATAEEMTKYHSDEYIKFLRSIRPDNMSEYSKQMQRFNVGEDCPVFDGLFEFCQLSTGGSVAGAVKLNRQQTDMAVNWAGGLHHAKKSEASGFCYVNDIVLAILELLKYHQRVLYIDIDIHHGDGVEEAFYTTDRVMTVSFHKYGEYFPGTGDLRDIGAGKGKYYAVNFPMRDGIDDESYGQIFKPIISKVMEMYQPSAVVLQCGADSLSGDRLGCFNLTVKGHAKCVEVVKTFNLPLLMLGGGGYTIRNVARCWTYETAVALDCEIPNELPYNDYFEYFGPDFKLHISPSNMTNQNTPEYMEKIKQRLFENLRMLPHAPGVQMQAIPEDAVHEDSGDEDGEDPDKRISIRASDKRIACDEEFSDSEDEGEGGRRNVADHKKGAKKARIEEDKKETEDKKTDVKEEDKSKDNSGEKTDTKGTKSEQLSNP

[18] = biological target: HDAC5 (Homo sapiens, UniProt Q9UQL6); assay: Fluorogenic isoform-specific HDAC assay, HDAC5; format: biochemical
Sequence of HDAC5 (Q9UQL6 whole entry, canonical isoform): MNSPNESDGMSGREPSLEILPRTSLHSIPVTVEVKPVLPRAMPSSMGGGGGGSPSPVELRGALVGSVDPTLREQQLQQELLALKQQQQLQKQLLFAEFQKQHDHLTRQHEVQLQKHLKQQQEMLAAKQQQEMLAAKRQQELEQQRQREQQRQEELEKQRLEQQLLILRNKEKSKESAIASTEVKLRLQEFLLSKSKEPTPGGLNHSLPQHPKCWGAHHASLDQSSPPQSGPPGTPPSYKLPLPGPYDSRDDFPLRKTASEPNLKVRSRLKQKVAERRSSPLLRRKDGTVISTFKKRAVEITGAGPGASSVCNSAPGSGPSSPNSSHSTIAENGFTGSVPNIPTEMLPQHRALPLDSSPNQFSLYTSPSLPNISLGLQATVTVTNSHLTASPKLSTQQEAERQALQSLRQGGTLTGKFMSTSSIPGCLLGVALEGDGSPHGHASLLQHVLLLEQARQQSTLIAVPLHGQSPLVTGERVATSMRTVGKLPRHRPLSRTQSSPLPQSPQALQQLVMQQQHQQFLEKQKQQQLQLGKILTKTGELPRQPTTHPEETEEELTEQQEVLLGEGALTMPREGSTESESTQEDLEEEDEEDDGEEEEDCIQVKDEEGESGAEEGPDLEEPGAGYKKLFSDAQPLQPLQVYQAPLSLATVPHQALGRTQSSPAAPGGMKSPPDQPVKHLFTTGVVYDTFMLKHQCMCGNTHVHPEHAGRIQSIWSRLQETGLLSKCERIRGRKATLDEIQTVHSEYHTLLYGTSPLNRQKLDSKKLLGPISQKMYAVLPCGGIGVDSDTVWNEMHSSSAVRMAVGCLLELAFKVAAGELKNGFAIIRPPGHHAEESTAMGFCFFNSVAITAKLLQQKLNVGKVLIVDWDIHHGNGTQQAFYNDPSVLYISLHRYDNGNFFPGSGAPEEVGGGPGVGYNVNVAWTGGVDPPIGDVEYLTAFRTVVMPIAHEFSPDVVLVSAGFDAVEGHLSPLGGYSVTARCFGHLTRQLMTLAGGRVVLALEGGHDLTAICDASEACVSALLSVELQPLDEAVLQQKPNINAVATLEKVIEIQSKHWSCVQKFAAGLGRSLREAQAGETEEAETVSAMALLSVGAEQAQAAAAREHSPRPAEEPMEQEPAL

[19] = read-out: HDAC-Glo: IC50, hNSC, cherry-pick confirmation, 11 concentrations, 1 hour
[20] = read-out: HDAC-Glo: IC50, HCT116, cherry-pick confirmation, 11 concentrations, 1 hour
[21] = read-out: IC50, HDAC-Glo I/II HCT116 assay, powder confirmation

Structure (SMILES)	HDAC-Glo: Efficacy, hNSC ([1]; cherry-pick confirmation)	IC50 [1, 19] [nM]	HDAC-Glo: Efficacy, HCT116 ([2]; cherry-pick confirmation)	Efficacy, HDAC-Glo I/II HCT116 assay ([2]; powder confirmation) [%]	IC50 [2, 20] [nM]	IC50 [2, 21] [nM]	IC50 [4] [nM]	viability at 1 h [5] [%]	viability at 1 h [6] [%]	IC50 [7] [nM]	Viability: IC50, HCT116 [4]	also measured
O=S(=O)(O)c1ccc2[nH]c(-c3ccccc3)nc2c1 [Ensulizole]	111 ± 1%	1940 ± 970	116 ± 5%	98 ± 0	6130 ± 3060	1660 ± 730	13400 ± 2800	70	58	16000 ± 1040		inhibition of HDAC3 (in words) ([3]; 20 μM): selectively inhibited; also recorded: selective to HDAC3
CC(/C=C/C(=O)NO)=C\[C@@H](C)C(=O)c1ccc(N(C)C)cc1 [Trichostatin A]	114 ± 6%	100 ± 20	119 ± 5%	99 ± 0	70 ± 10	110 ± 10					Inactive	IC50 ([1]; read-out: average IC50, HDAC-Glo I/II activity, hNSC, assay optimization, Figure 1A): 440 nM; HDAC I/II inhibitory activity (in words) ([2]; HCT116 and HEK293 cells, validation with epigenetics libraries): greatly inhibited HDAC-Glo I/II activity; IC50 ([2]; read-out: IC50, HDAC-Glo I/II, HCT116 cells, time course, one hour treatment): 50 ± 30 nM; IC50 ([2]; read-out: average IC50, HDAC-Glo I/II activity, HCT116, assay optimization, Figure 1A): 250 nM; IC50 [8]: 50 nM; IC50 [9]: 90 nM; inhibition against all class I and II HDAC enzymes [10]: over 80%; inhibition of HDAC isoforms (in words) ([10]; Figure 3): inhibited activities of all isoforms; IC50 [11]: 100 nM; Viability: IC50, hNSC ([7]; cherry-pick confirmation, 1 hour): Inactive
O=C(O)c1cccc(-c2noc(-c3ccccc3F)n2)c1 [Ataluren (PTC-124), Ataluren]	109 ± 3%	800 ± 50	111 ± 4%		830		14400 ± 2450	103	86 ± 60.2	14300 ± 930		
Oc1cc(O)cc(/C=C/c2ccc(O)c(O)c2)c1 [Piceatannol]	108 ± 4%	4180	105 ± 7%	60 ± 4	5900	10300 ± 1060			25	19500 ± 2490	Inactive	inhibition of HDAC-Glo I/II luminescence signals ([1]; hNSCs, cherry-pick confirmation, Figure 2): completely inhibited; inhibition of HDAC activity, HDAC7 [12]: over 30%; IC50 [13]: 8220 nM; IC50 [3]: 23300 nM; IC50 [14]: 9950 nM; inhibition of HDAC activity, HDAC9 ([14]; Figure 4D, Suppl. Table S4): over 30%; IC50 [15]: 3420 nM; inhibition of HDAC activity, HDAC1 [16]: over 30%; IC50 [17]: 5040 nM; IC50 [18]: 890 nM; inhibition of HDAC activity, HDAC5 ([18]; Figure 4D, Suppl. Table S4): over 30%
CC(=O)Oc1ccccc1C(=O)Nc1ncc([N+](=O)[O-])s1 [Nitazoxanide]	104 ± 1%	1050 ± 120	116 ± 1%	99 ± 0	1600 ± 100	1350 ± 140	23600 ± 12000	62	40	12400 ± 4650		
CNC(=O)c1ccccc1Sc1ccc2c(/C=C/c3ccccn3)n[nH]c2c1 [Axitinib]	6.65 ± 0.76 (106 ± 4) %		2.97 ± 0.34 (105 ± 3) %									inhibition of HDAC6 (in words) ([13]; 20 μM): inhibited HDADC6 the most
